Like-named read-outs stand apart in the source and are kept apart here.
Key:
[1] = test system: human multiple myeloma cell line, OPM-2; test: Cell viability assay (OPM-2 10 FBS), CellTiter-Glo; assay type: cell-based
Outline: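 OPM-2 cells at 3000 cells/well in RPMI 1640 with 10% FBS were exposed to serially diluted compounds for 16 h at 37 °C, 5% CO2.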

[2] = molecular target: recombinant human Mcl-1 (residues 171-327) / Bim interaction (Homo sapiens (Human), UniProt Q07820); test: biochemical; assay type: binding; conditions: TR-FRET, Mcl-1(171-327) / biotin-Bim (51-76); read-out: Mcl-1 HTRF IC50
Sequence of recombinant human Mcl-1 (residues 171-327) / Bim interaction (Q07820 171-327): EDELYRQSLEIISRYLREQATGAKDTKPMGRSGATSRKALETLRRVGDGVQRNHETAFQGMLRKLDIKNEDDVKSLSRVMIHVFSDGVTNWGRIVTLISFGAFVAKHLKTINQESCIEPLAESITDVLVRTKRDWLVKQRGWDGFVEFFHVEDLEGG

[3] = read-out: OPM-2 10% FBS IC50 IP, OPM-2 cells, 10% FBS, 16 h, CellTiter-Glo
[4] = Homo sapiens, OPM-2, 16 h, read-out: OPM-2 10% FBS IC50 IP, OPM-2 cells, 10% FBS, 16 h, CellTiter-Glo

| SMILES | IC50 [1, 3] | IC50 [2] | IC50 [1, 4] |
| --- | --- | --- | --- |
| C[C@H](C(=O)O)[C@@]1(O)/C=C/C[C@H](C)[C@@H](C)S(=O)(=O)NC(=O)c2ccc3c(c2)N(C[C@@H]2CC[C@H]21)C[C@@]1(CCCc2cc(Cl)ccc21)CO3 (single isomer, unassigned) [Example 100120] | 635 nM | 0.067 nM |  |
| C[C@H](C(=O)O)[C@@]1(O)/C=C/C[C@H](C)[C@@H](C)S(=O)(=O)NC(=O)c2ccc3c(c2)N(C[C@@H]2CC[C@H]21)C[C@@]1(CCCc2cc(Cl)ccc21)CO3 (single isomer, unassigned) [Example 100121] | 2530 nM | 0.056 nM |  |
| C[C@H](C(=O)O)[C@@]1(O)/C=C/C[C@H](C)[C@@H](C)S(=O)(=O)NC(=O)c2ccc3c(c2)N(C[C@@H]2CC[C@H]21)C[C@@]1(CCCc2cc(Cl)ccc21)CO3 (single isomer, unassigned) [Example 100122] | 1190 nM | 0.098 nM |  |
| C[C@H](C(=O)O)[C@@]1(O)/C=C/C[C@H](C)[C@@H](C)S(=O)(=O)NC(=O)c2ccc3c(c2)N(C[C@@H]2CC[C@H]21)C[C@@]1(CCCc2cc(Cl)ccc21)CO3 (single isomer, unassigned) [Example 100123] | 2660 nM | 0.092 nM |  |
| C[C@@H]1[C@@H](C)C/C=C/[C@@](O)([C@@H](C)C(=O)N(C)C)[C@@H]2CC[C@H]2CN2C[C@@]3(CCCc4cc(Cl)ccc43)COc3ccc(cc32)C(=O)NS1(=O)=O (single isomer, unassigned) [Example 100124] | 270 nM | 0.323 nM |  |
| C[C@@H]1[C@@H](C)C/C=C/[C@@](O)([C@@H](C)C(=O)N(C)C)[C@@H]2CC[C@H]2CN2C[C@@]3(CCCc4cc(Cl)ccc43)COc3ccc(cc32)C(=O)NS1(=O)=O (single isomer, unassigned) [Example 100126] | 41 nM | 0.183 nM |  |
| C=CC[C@@]1(O)/C=C/C[C@H](C)[C@@H](C)S(=O)(=O)NC(=O)c2ccc3c(c2)N(C[C@@H]2CC[C@H]21)C[C@@]1(CCCc2cc(Cl)ccc21)CO3 (single isomer, unassigned) [Example 100131] |  | 0.163 nM | 144 nM |
| C[C@@H]1[C@@H](C)CCC[C@](O)(CC(=O)N(C)C(C)(C)C)[C@@H]2CC[C@H]2CN2C[C@@]3(CCCc4cc(Cl)ccc43)COc3ccc(cc32)C(=O)NS1(=O)=O (single isomer, unassigned) [Example 100142] | 663 nM | 0.717 nM |  |
| C[C@@H]1[C@@H](C)CCC[C@](O)(CC(=O)N(C)C(C)(C)C)[C@@H]2CC[C@H]2CN2C[C@@]3(CCCc4cc(Cl)ccc43)COc3ccc(cc32)C(=O)NS1(=O)=O (single isomer, unassigned) [Example 100143] | 3270 nM | 1.87 nM |  |
| C[C@@H]1[C@@H](C)C/C=C/[C@@]2(CCCO2)[C@@H]2CC[C@H]2CN2C[C@@]3(CCCc4cc(Cl)ccc43)COc3ccc(cc32)C(=O)NS1(=O)=O (single isomer, unassigned) [Example 100159] |  | 0.559 nM | 591 nM |
| C[C@@H]1[C@@H](C)CCC[C@](O)(CC(=O)N2CCN(C)CC2)[C@@H]2CC[C@H]2CN2C[C@@]3(CCCc4cc(Cl)ccc43)COc3ccc(cc32)C(=O)NS1(=O)=O (single isomer, unassigned) [Example 100168] |  | 0.249 nM | 196 nM |
| C[C@@H]1[C@@H](C)CCC[C@](O)(CC(=S)N(C)C)[C@@H]2CC[C@H]2CN2C[C@@]3(CCCc4cc(Cl)ccc43)COc3ccc(cc32)C(=O)NS1(=O)=O (single isomer, unassigned) [Example 100172] | 1570 nM | 1.29 nM |  |
| C[C@@H]1[C@@H](C)CCC[C@](O)(CC(=S)N(C)C)[C@@H]2CC[C@H]2CN2C[C@@]3(CCCc4cc(Cl)ccc43)COc3ccc(cc32)C(=O)NS1(=O)=O (single isomer, unassigned) [Example 100173] | 379 nM | 0.539 nM |  |
| C[C@@H]1[C@@H](C)C/C=C/[C@@](O)(c2ccccn2)[C@@H]2CC[C@H]2CN2C[C@@]3(CCCc4cc(Cl)ccc43)COc3ccc(cc32)C(=O)NS1(=O)=O (single isomer, unassigned) [Example 100181] |  | 0.537 nM | 226 nM |
| C[C@@H]1[C@@H](C)C/C=C/[C@](O)(c2cccnc2)[C@@H]2CC[C@H]2CN2C[C@@]3(CCCc4cc(Cl)ccc43)COc3ccc(cc32)C(=O)NS1(=O)=O (single isomer, unassigned) [Example 100183] |  | 1.34 nM | 2240 nM |
| CO[C@]1(C)CCC[C@H](C)[C@@H](C)S(=O)(=O)NC(=O)c2ccc3c(c2)N(C[C@@H]2CC[C@H]21)C[C@@]1(CCCc2cc(Cl)ccc21)CO3 (single isomer, unassigned) [Example 100211] | 4780 nM | 1.44 nM |  |
| CO[C@]1(C)CCC[C@H](C)[C@@H](C)S(=O)(=O)NC(=O)c2ccc3c(c2)N(C[C@@H]2CC[C@H]21)C[C@@]1(CCCc2cc(Cl)ccc21)CO3 (single isomer, unassigned) [Example 100212] | 1620 nM | 0.901 nM |  |

| SMILES | IC50 [1, 3] | IC50 [2] | IC50 [1, 4] |
| --- | --- | --- | --- |
| C[C@@H]1[C@@H](C)CCC[C@]2(CCO2)[C@@H]2CC[C@H]2CN2C[C@@]3(CCCc4cc(Cl)ccc43)COc3ccc(cc32)C(=O)NS1(=O)=O (single isomer, unassigned) [Example 100229] |  | 0.356 nM | 1490 nM |
| C[C@@H]1[C@@H](C)C/C=C/[C@](O)(CC(=O)N(C)c2ccccc2)[C@@H]2CC[C@H]2CN2C[C@@]3(CCCc4cc(Cl)ccc43)COc3ccc(cc32)C(=O)NS1(=O)=O (single isomer, unassigned) [Example 100248] |  | 11.1 nM | 6680 nM |
| C[C@@H]1[C@@H](C)CCC[C@@](O)(Cc2nccs2)[C@@H]2CC[C@H]2CN2C[C@@]3(CCCc4cc(Cl)ccc43)COc3ccc(cc32)C(=O)NS1(=O)=O (single isomer, unassigned) [Example 100250] | 82 nM | 0.136 nM |  |
| C[C@@H]1[C@@H](C)CCC[C@@](O)(Cc2nccs2)[C@@H]2CC[C@H]2CN2C[C@@]3(CCCc4cc(Cl)ccc43)COc3ccc(cc32)C(=O)NS1(=O)=O (single isomer, unassigned) [Example 100251] | 3730 nM | 3.29 nM |  |
| C=CC[C@]1(O)CCC[C@H](C)[C@@H](C)S(=O)(=O)NC(=O)c2ccc3c(c2)N(C[C@@H]2CC[C@H]21)C[C@@]1(CCCc2cc(Cl)ccc21)CO3 (single isomer, unassigned) [Example 100266] | 571 nM | 0.292 nM |  |
| C=CC[C@]1(O)CCC[C@H](C)[C@@H](C)S(=O)(=O)NC(=O)c2ccc3c(c2)N(C[C@@H]2CC[C@H]21)C[C@@]1(CCCc2cc(Cl)ccc21)CO3 (single isomer, unassigned) [Example 100273] | 8660 nM | 5.66 nM |  |
| C[C@@H]1[C@@H](C)C/C=C/[C@](O)(c2ncccn2)[C@@H]2CC[C@H]2CN2C[C@@]3(CCCc4cc(Cl)ccc43)COc3ccc(cc32)C(=O)NS1(=O)=O (single isomer, unassigned) [Example 100274] |  | 0.377 nM | 543 nM |
| C[C@@H]1[C@@H](C)C/C=C/[C@@](CC(=O)N(C)C)(OCCN2CCOCC2)[C@@H]2CC[C@H]2CN2C[C@@]3(CCCc4cc(Cl)ccc43)COc3ccc(cc32)C(=O)NS1(=O)=O (single isomer, unassigned) [Example 100310] |  | 0.152 nM | 120 nM |
| C[C@@H]1[C@@H](C)C/C=C/[C@](O)(c2cccnc2F)[C@@H]2CC[C@H]2CN2C[C@@]3(CCCc4cc(Cl)ccc43)COc3ccc(cc32)C(=O)NS1(=O)=O (single isomer, unassigned) [Example 100313] | 143 nM | 0.129 nM |  |
| C[C@@H]1[C@@H](C)C/C=C/[C@](O)(c2cccnc2F)[C@@H]2CC[C@H]2CN2C[C@@]3(CCCc4cc(Cl)ccc43)COc3ccc(cc32)C(=O)NS1(=O)=O (single isomer, unassigned) [Example 100314] | 2290 nM | 2.93 nM |  |
| CO[C@@]1(CC(=O)N2CC[C@@H](N(C)C)C2)/C=C/C[C@H](C)[C@@H](C)S(=O)(=O)NC(=O)c2ccc3c(c2)N(C[C@@H]2CC[C@H]21)C[C@@]1(CCCc2cc(Cl)ccc21)CO3 (single isomer, unassigned) [Example 100318] |  | 0.095 nM | 114 nM |
| C[C@@H]1[C@@H](C)CCC[C@](O)(Cc2ccccc2)[C@@H]2CC[C@H]2CN2C[C@@]3(CCCc4cc(Cl)ccc43)COc3ccc(cc32)C(=O)NS1(=O)=O (single isomer, unassigned) [Example 100319] |  | 0.126 nM | 506 nM |
| COc1ncccc1[C@@]1(O)/C=C/C[C@H](C)[C@@H](C)S(=O)(=O)NC(=O)c2ccc3c(c2)N(C[C@@H]2CC[C@H]21)C[C@@]1(CCCc2cc(Cl)ccc21)CO3 (single isomer, unassigned) [Example 100333] |  | 2.1 nM | 2170 nM |
| COc1ncccc1[C@@]1(O)/C=C/C[C@H](C)[C@@H](C)S(=O)(=O)NC(=O)c2ccc3c(c2)N(C[C@@H]2CC[C@H]21)C[C@@]1(CCCc2cc(Cl)ccc21)CO3 (single isomer, unassigned) [Example 100334] | 1470 nM | 3.27 nM |  |
| CO[C@@]1(c2cccc(F)n2)/C=C/C[C@H](C)[C@@H](C)S(=O)(=O)NC(=O)c2ccc3c(c2)N(C[C@@H]2CC[C@H]21)C[C@@]1(CCCc2cc(Cl)ccc21)CO3 (single isomer, unassigned) [Example 100339] |  | 0.186 nM | 1380 nM |
| C[C@@H]1[C@@H](C)C/C=C/[C@@](O)(c2cccnn2)[C@@H]2CC[C@H]2CN2C[C@@]3(CCCc4cc(Cl)ccc43)COc3ccc(cc32)C(=O)NS1(=O)=O (single isomer, unassigned) [Example 100348] |  | 0.135 nM | 125 nM |
| C[C@@H]1[C@@H](C)C/C=C/[C@@](O)(c2ccncn2)[C@@H]2CC[C@H]2CN2C[C@@]3(CCCc4cc(Cl)ccc43)COc3ccc(cc32)C(=O)NS1(=O)=O (single isomer, unassigned) [Example 100360] |  | 0.848 nM | 1230 nM |
